Results on five molecules are retold here after paper PMC6681301, “Multi-Target β-Protease Inhibitors from Andrographis paniculata: In Silico and In Vitro Studies” (Plants, 2019).

In one assay the test system is BChE. Further details: method as in PMID 29850593. Conditions: cited from earlier work.
The subject of the next assay is AChE. Further details: method as in PMID 29850593. Conditions: cited from earlier work.
The target in the next assay is T1, BACE-1 (Homo sapiens, UniProt P56817).
T1 construct: purchased Sigma
Description: In vitro BACE-1 activity assay (Sigma BACE-1 FRET assay kit). In kind it is biochemical. As for the experimental part: The assay was performed according to the manufacturer protocol supplied in BACE-1 activity (Sigma, BACE-1FRET assay kit). […] The BACE-1 substrate solution (50 μM), a BACE-1 enzyme solution (2 μL), and inhibitor solutions were prepared as per the manufacturer’s protocol.
BACE-1 substrate solution was prepared with 1 mg/mL (500 μM) by adding 0.5 ml of DMSO to BACE-1 substrate. 7-Methoxycumarin-4-acetyl-Asn670, Lue 671-Amyloid β/A4 Precursor Protein 770 Fragment 667-(2,4 dinitrophenyl), and Lys-Arg-Arg amide […] salt was used as a substrate for BACE-1. A BACE-1 enzyme solution of ~0.3 unit/μL was prepared. […] The isolated compounds were used for the isolated inhibitor solution preparation. The 5281780 solution (20 μM) with 1% DMSO was prepared after heating the solution at 55 °C for 5 min. The 188316 solution (20 μM) was prepared with 1% DMSO. The 5280443 solution was also prepared with concentration of 20 μM in 1% DMSO. These inhibitor solutions with variable concentrations (1 μM, 2 μM, 3 μM, 4 μM) were used for testing BACE-1 activities. The fluorescence assay buffer (78 μL, 79 μL, 80 μL, 81 μL), a BACE-1 enzyme solution (2 μL), the substrate solution (20 μL), and inhibitor solutions (0 μL, 1 μL, 2 μL, 3 μL, 4 μL) were added to a 96-well plate. Each concentration was considered in triplicate. […] The plate was incubated for 120 min at 37 °C, and the readings were taken. The readings were noted as S120. The percent inhibition was calculated using the formula, percent inhibition = [1 − (S120 − S0)/(C120 − C0)] × 100 [139].

The target in assay [1] is Acetylcholinesterase (Human) (Homo sapiens, UniProt P22303). Description: In vitro AChE activity assay (Ellman). In kind it is biochemical. As for the experimental part: (§1) The inhibitory activities of both AChE and BChE were measured using the spectrophotometric method developed by Ellman. Acetylcholinesterase (Human), butyrylcholinesterase (Human) with […] (ACh), and […] (BCh) were used as their substrates, respectively. The enzyme activity was observed using Varioskan Flash (version 4.00.53), and the reading was observed using SkanIt Software (2.4.5 RE for Varioskan Flash). AChE and BChE solutions of ~0.15 unit/μL were prepared. The stock solution of AChE substrate (2.5 μM) and BChE substrate (2.5 μM) solution was prepared with DMSO, respectively.
(§2) The isolated compound inhibitor solutions were prepared using the same method as discussed in the BACE-1 assay. The sodium phosphate buffer (pH 8) (78 μL, 79 μL, 80 μL, 81 μL), 20 μL of the 5, 5′-dithiobis-(2-nitrobenzoic acid) (DTNB), AChE, and BChE enzyme solution (2 μL), substrate solution (20 μL), and inhibitor solutions (0 μL, 1 μL, 2 μL, 3 μL, 4 μL) were added to a 96-well plate. Each concentration was considered in triplicate. The plate was incubated for 15 min at 25 °C, and the readings were taken at 412 nm. The percentage inhibition was calculated using the formula percentage inhibition = (1 − C/I) × 100, where C and I were the enzyme activities without and with the test sample, respectively.
A general note: Ellman's reagent forms a yellow product with free thiols.

Assay [2] concerns the target butyrylcholinesterase (Human) (Homo sapiens, UniProt P06276). Description: In vitro BChE activity assay (Ellman). It counts as biochemical. As for the experimental part: as §1, §2
The target of assay [3] is glycogen synthase kinase-3b. The settings on record: read-out: IC50, inhibition of glycogen synthase kinase-3b; cited from earlier work.
A further assay has as its system BChE (equine serum). Further details: method as in PMID 23529036. The settings on record: cited from earlier work.
Another assay relates to AChE (electric eel). Details: method as in PMID 23529036. Conditions: cited from earlier work.

A word on the IC50: it is the midpoint of a concentration-inhibition curve.

The structures appear in SMILES notation.

Acetylcholinesterase (Human), sequence (P22303 32-614): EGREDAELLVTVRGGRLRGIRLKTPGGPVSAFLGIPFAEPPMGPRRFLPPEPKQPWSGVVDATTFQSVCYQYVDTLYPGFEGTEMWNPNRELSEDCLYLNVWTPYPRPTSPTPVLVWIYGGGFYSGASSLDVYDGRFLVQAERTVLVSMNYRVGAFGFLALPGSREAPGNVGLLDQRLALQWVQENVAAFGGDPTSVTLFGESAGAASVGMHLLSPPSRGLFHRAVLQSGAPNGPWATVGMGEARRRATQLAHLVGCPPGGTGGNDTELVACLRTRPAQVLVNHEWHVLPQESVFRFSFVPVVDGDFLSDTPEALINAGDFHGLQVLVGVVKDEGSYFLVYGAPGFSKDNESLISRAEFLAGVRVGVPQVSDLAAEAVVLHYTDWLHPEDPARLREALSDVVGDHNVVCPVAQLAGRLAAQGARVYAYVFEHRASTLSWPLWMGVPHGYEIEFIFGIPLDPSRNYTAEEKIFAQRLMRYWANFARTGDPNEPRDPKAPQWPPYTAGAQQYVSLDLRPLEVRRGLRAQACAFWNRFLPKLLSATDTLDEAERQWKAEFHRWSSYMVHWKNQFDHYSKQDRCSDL
T1 sequence (P56817 46-501): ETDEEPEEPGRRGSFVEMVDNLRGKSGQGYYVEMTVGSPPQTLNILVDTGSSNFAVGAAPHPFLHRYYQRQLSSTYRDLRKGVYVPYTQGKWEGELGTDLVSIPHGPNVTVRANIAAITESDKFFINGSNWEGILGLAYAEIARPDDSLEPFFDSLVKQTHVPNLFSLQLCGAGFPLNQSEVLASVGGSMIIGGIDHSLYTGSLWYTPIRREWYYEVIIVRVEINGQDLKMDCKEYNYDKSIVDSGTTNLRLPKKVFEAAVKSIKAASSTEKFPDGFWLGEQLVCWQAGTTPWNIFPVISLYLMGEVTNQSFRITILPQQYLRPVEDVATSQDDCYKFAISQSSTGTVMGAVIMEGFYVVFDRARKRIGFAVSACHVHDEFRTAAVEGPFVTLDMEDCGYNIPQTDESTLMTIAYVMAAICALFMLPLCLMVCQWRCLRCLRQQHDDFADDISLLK
butyrylcholinesterase (Human), sequence (P06276 29-602): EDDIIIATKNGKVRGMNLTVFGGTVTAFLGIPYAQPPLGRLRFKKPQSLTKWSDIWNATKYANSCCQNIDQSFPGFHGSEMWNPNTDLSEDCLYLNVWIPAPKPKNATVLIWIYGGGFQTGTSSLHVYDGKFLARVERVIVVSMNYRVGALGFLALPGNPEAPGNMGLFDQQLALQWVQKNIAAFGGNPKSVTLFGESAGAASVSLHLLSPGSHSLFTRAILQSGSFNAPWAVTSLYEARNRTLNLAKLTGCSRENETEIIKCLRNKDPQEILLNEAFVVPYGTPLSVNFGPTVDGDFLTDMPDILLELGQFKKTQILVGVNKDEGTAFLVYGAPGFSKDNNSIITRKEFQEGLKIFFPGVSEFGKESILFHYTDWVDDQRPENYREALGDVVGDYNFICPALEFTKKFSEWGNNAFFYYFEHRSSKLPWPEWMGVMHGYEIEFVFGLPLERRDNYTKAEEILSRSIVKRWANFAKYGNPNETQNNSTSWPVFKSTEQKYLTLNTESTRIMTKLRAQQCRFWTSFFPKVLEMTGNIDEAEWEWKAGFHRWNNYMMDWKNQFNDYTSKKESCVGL

For the molecule `COc1cc2c(cc1O)C[C@H]1c3c(cc(O)c(OC)c3-2)CCN1C` [Boldine], the IC50 in the assay with BChE is 321 µM; in the assay with AChE, 372 µM.
Take `COc1cc(O)c2c(=O)cc(-c3ccccc3)oc2c1OC` [Compound 188316, 7-o-methylwogonin]: the 50% inhibitory concentration (IC50) against BACE-1 came out at 2.91 ± 0.04 µM; in assay [1] it was 2.46 ± 0.03 µM; in assay [2], 1.46 ± 0.02 µM. The “potency relative to eserine” value in assay [1] (comparison of IC50 values (Table 4)) is recorded as roughly 1.5 fold.
For `O=c1cc(-c2ccc(O)cc2)oc2cc(O)cc(O)c12` [Compound 5280443, apigenin], the half-inhibitory concentration (IC50) is 3.79 ± 0.26 µM on BACE-1, 3.42 ± 0.02 µM in assay [1], 1.9 µM in assay [3] and 1.97 ± 0.01 µM in assay [2].
With `O=C(C=Cc1ccc(O)c(O)c1)OC1CC(O)(C(=O)O)CC(O)C1OC(=O)C=Cc1ccc(O)c(O)c1` (centres unmarked) [Compound 5281780, 3,4-di-o-caffeoylquinic acid], the IC50 on BACE-1 is 3.31 ± 0.12 µM; in assay [1], 2.14 ± 0.04 µM.
For the molecule `CNC(=O)Oc1ccc2c(c1)[C@]1(C)CCN(C)[C@@H]1N2C` [Eserine], the results for the IC50 in the assay with BChE (equine serum) and in the assay on AChE (electric eel) were […] and […], respectively.
